Reference: patent US20130245075A1, “MELANOGENESIS INHIBITION-METHODS AND COMPOSITIONS THEREOF” (priority 2012, published 2013)
In brackets after ≈: the same amount, converted by molar mass.

Test system: B16 F1 mouse melanoma cells
Test: Melanogenesis inhibition: intracellular melanin in α-MSH/cAMP-induced B16F1 cells
Assay type: cell-based
Settings: B16-F1, 216 h, melanin induced by α-MSH/cAMP, 9 days treatment, melanin extracted by 1N NaOH, absorbance 405 nm, read-out: IC50 (inhibition of melanin formation)
Method: The intracellular melanin in B16 F1 mouse melanoma cells treated with varying concentrations of the sample is extracted by 1N NaOH. The brown colored melanin thus extracted is estimated at 405 nm. This brown color intensity of the melanin is quenched in the presence of the inhibitor. B16F1 mouse melanoma cells are cultured for 24 hours in a 6 well microtiter plate at a seeding density of 5000 cells per well. Melanin production is induced by α-MSH/cAMP after which the cells are treated with varying non-cytotoxic concentrations of the sample over a period of 9 days with sample treatment at regular intervals of 3 days. The melanin is extracted by 1N NaOH and the absorbance read at 405 nm in a Microplate reader. The inhibitory effect of the sample is calculated based on the degree of inhibition of melanin formation. The results are expressed as IC50 values using Graph pad prism software. The percentage of inhibition of melanin is calculated as follows % Inhibition=C−T/C×100 Where, C-absorbance due to melanin in untreated cells; T-absorbance due to melanin in sample treated cells

Structure (SMILES): COc1cc(/C=C/C(=O)N2CCC=CC2=O)cc(OC)c1OC [piperlongumine]
- IC50: 0.625 µg/mL (≈ 1.97 µM)

Structure (SMILES): O=c1cc(CO)occ1O [Kojic acid]
- IC50: 100 µg/mL (≈ 704 µM)
